Consider 2 compounds from PMC4598770, “Galectin Binding to Neo-Glycoproteins: LacDiNAc Conjugated BSA as Ligand for Human Galectin-3” (Biomolecules, 2015).

In general, IC50 refers to the point on the concentration scale where inhibition reaches its midpoint. Low values mean higher potency, high ones lower potency.

The assay deals with T1, human Gal-3 (Homo sapiens, UniProt P17931).
T1 construct: made in house; host or cells: E. coli Rosetta (DE3) pLysS
Put plainly: Competitive inhibition of Gal-3 binding to immobilized ASF. The settings on record: for IC50: 5 µM galectin-3 binding to immobilized ASF; for Relative potency: related to the corresponding tetrasaccharide (4 or 5); for Relative potency per glycan: related to the corresponding tetrasaccharide and to one binding site. As to the method: Neo-glycoproteins were used as inhibitors of Gal-3 to ASF binding in competitive inhibition assays performed as described. The standard glycoprotein ASF (Sigma-Aldrich) was immobilized in microtiter plates as described above for neo-glycoproteins. After blocking, 5 µM Gal-3 and varying concentration of 11j, 11k, 11g and 12j, 12k, 12g were simultaneously incubated for 1 h followed by detection of bound Gal-3 as described above. Measured data were fitted and IC50 values calculated using Sigma Plot software (Systat software GmbH).

T1 sequence (P17931 whole entry): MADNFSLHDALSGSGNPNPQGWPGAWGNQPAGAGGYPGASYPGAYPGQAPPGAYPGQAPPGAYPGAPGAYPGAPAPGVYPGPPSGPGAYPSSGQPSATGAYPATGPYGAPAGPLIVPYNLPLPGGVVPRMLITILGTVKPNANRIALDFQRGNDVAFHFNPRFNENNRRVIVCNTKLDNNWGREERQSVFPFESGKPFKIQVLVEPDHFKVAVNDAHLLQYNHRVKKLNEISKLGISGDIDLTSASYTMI

Turning to `CC(=O)N[C@@H]1[C@@H](O)[C@H](O[C@@H]2O[C@H](CO)[C@H](O)[C@H](O[C@@H]3O[C@H](CO)[C@@H](O[C@@H]4O[C@H](CO)[C@H](O)[C@H](O)[C@H]4NC(C)=O)[C@H](O)[C@H]3NC(C)=O)[C@H]2O)[C@@H](CO)O[C@H]1NC(=S)NCCNC(=O)OC(C)(C)C` [Compound 5, GalNAcβ1,4GlcNAcβ1,3Galβ1,4GlcNAcβ1-linker-NH2-tBoc], the IC50 was found to be 7.23 ± 0.87 µM. For the same compound, where the note is “5 µM galectin-3, ASF, compared with LacNAc-LacNAc (4)”, the “Higher inhibition of Gal-3 binding compared to 4” value worked out at 1.5 fold. Also, where the note is “5 µM galectin-3, ASF”, the Relative potency turned out to be 1.0 ± 0.12 and the “Relative potency per glycan” value came out at 1.0 ± 0.12.

Turning to `CC(=O)N[C@@H]1[C@@H](O)[C@H](O[C@@H]2O[C@H](CO)[C@H](O)[C@H](O[C@@H]3O[C@H](CO)[C@@H](O[C@@H]4O[C@H](CO)[C@H](O)[C@H](O)[C@H]4O)[C@H](O)[C@H]3NC(C)=O)[C@H]2O)[C@@H](CO)O[C@H]1NC(=S)NCCNC(=O)OC(C)(C)C` [Compound 4, Galβ1, 4GlcNAcβ1, 3Galβ1, 4GlcNAcβ1-linker-NH2-tBoc], the IC50 is 13 ± 3.43 µM. Where the note is “5 µM galectin-3, ASF”, the Relative potency stood at 1.0 ± 0.26 and the “Relative potency per glycan” value is given as 1.0 ± 0.26.
